pIC50: −log10 of the molar value.
Legend:
PARP1 = PARP1 (Homo sapiens (Human), UniProt P09874); assay: PARP fluorescence anisotropy binding assay, PARP1
Method: Recombinant full length 6HIS tagged PARP1 protein was diluted to 6 nM with 50 mM Tris pH 8, 0.001% Triton X100, 10 mM MgCl2, 150 mM NaCl and incubated for four hours with an equivalent volume of 2 nM fluorescent probe diluted with 50 mM Tris pH 8, 0.001% Triton X100, 10 mM MgCl2, 150 mM NaCl. The final DMSO concentration of the probe was kept below 1% (v/v).
Fluorescence anisotropy of the probe when bound to the proteins was measured using a BMG Pherastar FSX® in the presence of test compounds or solvent control and the effect on anisotropy determined. % inhibition values for different test compound concentrations were calculated and fitted to a four parameter logistic plot in order to determine the IC50 value. Where necessary, the compound K, can be determined from the IC50 value using a Munson Rodbard equation defined in Anal Biochem. 1980 Sep.

PARP2 = PARP2 (Homo sapiens (Human), UniProt Q9UGN5); assay: PARP fluorescence anisotropy binding assay, PARP2
Method: Recombinant full length PARP2 protein was diluted to 6 nM with 50 mM Tris pH 8, 0.001% Triton X100, 10 mM MgCl2, 150 mM NaCl and incubated for four hours with an equivalent volume of 2 nM fluorescent probe diluted with 50 mM Tris pH 8, 0.001% Triton X100, 10 mM MgCl2, 150 mM NaCl. The final DMSO concentration of the probe was kept below 1% (v/v).
Fluorescence anisotropy of the probe when bound to the proteins was measured using a BMG Pherastar FSX® in the presence of test compounds or solvent control and the effect on anisotropy determined. % inhibition values for different test compound concentrations were calculated and fitted to a four parameter logistic plot in order to determine the IC50 value.

Sequence of PARP1 (P09874 whole entry): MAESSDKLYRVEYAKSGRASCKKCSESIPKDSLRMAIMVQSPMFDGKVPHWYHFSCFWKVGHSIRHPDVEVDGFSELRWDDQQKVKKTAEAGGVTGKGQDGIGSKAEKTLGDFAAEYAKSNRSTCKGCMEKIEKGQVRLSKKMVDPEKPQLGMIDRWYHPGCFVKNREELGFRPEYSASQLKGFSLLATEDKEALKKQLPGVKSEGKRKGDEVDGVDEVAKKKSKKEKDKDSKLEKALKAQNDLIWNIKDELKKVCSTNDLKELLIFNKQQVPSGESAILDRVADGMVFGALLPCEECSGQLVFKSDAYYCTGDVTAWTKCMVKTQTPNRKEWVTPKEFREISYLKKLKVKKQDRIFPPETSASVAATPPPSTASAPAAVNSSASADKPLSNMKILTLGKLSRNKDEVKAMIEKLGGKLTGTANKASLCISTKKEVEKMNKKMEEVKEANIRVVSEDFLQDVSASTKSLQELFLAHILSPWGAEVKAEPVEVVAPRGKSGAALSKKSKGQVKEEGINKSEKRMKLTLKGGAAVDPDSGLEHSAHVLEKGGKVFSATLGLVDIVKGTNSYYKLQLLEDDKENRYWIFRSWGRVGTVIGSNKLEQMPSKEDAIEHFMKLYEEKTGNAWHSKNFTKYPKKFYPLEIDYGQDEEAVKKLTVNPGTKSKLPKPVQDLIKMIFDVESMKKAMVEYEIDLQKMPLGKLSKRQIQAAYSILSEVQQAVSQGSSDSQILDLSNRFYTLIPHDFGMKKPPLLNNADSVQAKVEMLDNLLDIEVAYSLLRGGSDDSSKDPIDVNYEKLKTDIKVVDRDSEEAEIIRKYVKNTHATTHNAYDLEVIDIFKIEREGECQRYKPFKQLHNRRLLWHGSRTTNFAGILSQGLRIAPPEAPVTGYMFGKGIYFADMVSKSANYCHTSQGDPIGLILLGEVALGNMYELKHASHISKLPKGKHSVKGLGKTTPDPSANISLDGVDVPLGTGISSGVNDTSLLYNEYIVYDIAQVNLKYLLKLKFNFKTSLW
Sequence of PARP2 (Q9UGN5 whole entry): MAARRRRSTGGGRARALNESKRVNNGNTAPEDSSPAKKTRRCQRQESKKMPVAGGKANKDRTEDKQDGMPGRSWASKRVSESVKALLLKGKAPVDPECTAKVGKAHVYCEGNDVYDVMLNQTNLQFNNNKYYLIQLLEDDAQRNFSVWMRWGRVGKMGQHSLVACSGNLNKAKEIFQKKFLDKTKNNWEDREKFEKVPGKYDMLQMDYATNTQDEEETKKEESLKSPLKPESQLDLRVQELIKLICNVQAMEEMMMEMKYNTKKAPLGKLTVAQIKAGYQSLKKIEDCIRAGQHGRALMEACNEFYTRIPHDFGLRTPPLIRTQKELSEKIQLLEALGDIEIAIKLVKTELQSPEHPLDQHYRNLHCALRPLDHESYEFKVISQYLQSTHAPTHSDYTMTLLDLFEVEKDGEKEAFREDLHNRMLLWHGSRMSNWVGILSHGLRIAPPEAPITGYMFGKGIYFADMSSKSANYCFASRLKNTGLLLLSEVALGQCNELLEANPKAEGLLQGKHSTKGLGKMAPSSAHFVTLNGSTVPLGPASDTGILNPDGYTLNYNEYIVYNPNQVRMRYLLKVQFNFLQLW

| Structure (SMILES) | pIC50 (PARP1) | pIC50 (PARP2) |
| --- | --- | --- |
| CNC(=O)c1ccc(N2CCN(Cc3ccc4nc(C)c(=O)[nH]c4c3C)CC2)cn1 [Example 2, 5-[4-[(2,5-dimethyl-3-oxo-4H-quinoxalin-6-yl)methyl]piperazin-1-yl]-N-methyl-pyridine-2-carboxamide] | 7.96 | 4.82 |
| Cc1nc2ccc(CN3CCN(c4ccc(C(N)=O)nc4F)CC3)c(C)c2[nH]c1=O [Example 5, 5-[4-[(2,5-dimethyl-3-oxo-4H-quinoxalin-6-yl)methyl]piperazin-1-yl]-6-fluoro-pyridine-2-carboxamide] | 8.30 | < 4.20 |
| Cc1nc(C(N)=O)ccc1N1CCN(Cc2ccc3nc(C)c(=O)[nH]c3c2F)CC1 [Example 6, 5-[4-[(5-fluoro-2-methyl-3-oxo-4H-quinoxalin-6-yl)methyl]piperazin-1-yl]-6-methyl-pyridine-2-carboxamide] | 8.40 | < 4.00 |
| Cc1nc(C(N)=O)ccc1N1CCN(Cc2ccc3nc(C)c(=O)[nH]c3c2C)CC1 [Example 7, 5-[4-[(2,5-dimethyl-3-oxo-4H-quinoxalin-6-yl)methyl]piperazin-1-yl]-6-methyl-pyridine-2-carboxamide] | 8.22 | 4.24 |
| CCc1nc2ccc(CN3CCN(c4ccc(C(=O)NC)nc4Cl)CC3)c(Cl)c2[nH]c1=O [Example 8, 6-chloro-5-[4-[(5-chloro-2-ethyl-3-oxo-4H-quinoxalin-6-yl)methyl]piperazin-1-yl]-N-methyl-pyridine-2-carboxamide] | 8.40 |  |
| CCc1nc2ccc(CN3CCN(c4ccc(C(=O)NC)nc4)CC3)c(Cl)c2[nH]c1=O [Example 10, 5-[4-[(5-chloro-2-ethyl-3-oxo-4H-quinoxalin-6-yl)methyl]piperazin-1-yl]-N-methyl-pyridine-2-carboxamide] | 7.89 |  |
| CCc1nc2ccc(CN3CCN(c4ccc(C(=O)NC)nc4C)CC3)c(Cl)c2[nH]c1=O [Example 11, 5-[4-[(5-chloro-2-ethyl-3-oxo-4H-quinoxalin-6-yl)methyl]piperazin-1-yl]-N,6-dimethyl-pyridine-2-carboxamide] | 8.52 |  |
| CNC(=O)c1ccc(N2CCN(Cc3ccc4nc(C)c(=O)[nH]c4c3Cl)CC2)cn1 [Example 16, 5-[4-[(5-chloro-2-methyl-3-oxo-4H-quinoxalin-6-yl)methyl]piperazin-1-yl]-N-methyl-pyridine-2-carboxamide] | 8.00 |  |
| CNC(=O)c1ccc(N2CCN(Cc3ccc4nc(C)c(=O)[nH]c4c3Cl)CC2)c(F)n1 [Example 17, 5-[4-[(5-chloro-2-methyl-3-oxo-4H-quinoxalin-6-yl)methyl]piperazin-1-yl]-6-fluoro-N-methyl-pyridine-2-carboxamide] | 8.22 |  |
| Cc1nc2ccc(CN3CCN(c4ccc(C(N)=O)nc4F)CC3)c(F)c2[nH]c1=O [Example 22, 6-fluoro-5-[4-[(5-fluoro-2-methyl-3-oxo-4H-quinoxalin-6-yl)methyl]piperazin-1-yl]pyridine-2-carboxamide] | 8.22 | 4.06 |
| CCc1nc2ccc(CN3CCN(c4ccc(C(N)=O)nc4)CC3)c(F)c2[nH]c1=O [Example 25, 5-[4-[(2-ethyl-5-fluoro-3-oxo-4H-quinoxalin-6-yl)methyl]piperazin-1-yl]pyridine-2-carboxamide] | 8.30 | < 4.00 |
| CCc1nc2ccc(CN3CCN(c4ccc(C(N)=O)nc4C)CC3)c(F)c2[nH]c1=O [Example 26, 5-[4-[(2-ethyl-5-fluoro-3-oxo-4H-quinoxalin-6-yl)methyl]piperazin-1-yl]-6-methyl-pyridine-2-carboxamide] | 8.30 | 4.06 |
| CNC(=O)c1ccc(N2CCN(Cc3ccc4ncc(=O)[nH]c4c3F)CC2)cn1 [Example 33, 5-[4-[(5-fluoro-3-oxo-4H-quinoxalin-6-yl)methyl]piperazin-1-yl]-N-methyl-pyridine-2-carboxamide] | 6.78 | < 4.00 |
| CNC(=O)c1ccc(N2CCN(Cc3ccc4ncc(=O)[nH]c4c3F)CC2)c(C)n1 [Example 35, 5-[4-[(5-fluoro-3-oxo-4H-quinoxalin-6-yl)methyl]piperazin-1-yl]-N,6-dimethyl-pyridine-2-carboxamide] | 7.52 | < 4.00 |
| CNC(=O)c1ccc(N2CCN(Cc3ccc4ncc(=O)[nH]c4c3F)CC2)c(F)n1 [Example 36, 6-fluoro-5-[4-[(5-fluoro-3-oxo-4H-quinoxalin-6-yl)methyl]piperazin-1-yl]-N-methyl-pyridine-2-carboxamide] | 7.66 | < 4.00 |
| CCc1nc2ccc(CN3CCN(c4ccc(C(=O)NC)nc4C)CC3)c(C)c2[nH]c1=O [Example 42, 5-[4-[(2-ethyl-5-methyl-3-oxo-4H-quinoxalin-6-yl)methyl]piperazin-1-yl]-N,6-dimethyl-pyridine-2-carboxamide] | 8.30 | < 4.06 |
| CCc1nc2ccc(CN3CCN(c4ccc(C(=O)NC)nc4F)CC3)c(C)c2[nH]c1=O [Example 43, 5-[4-[(2-ethyl-5-methyl-3-oxo-4H-quinoxalin-6-yl)methyl]piperazin-1-yl]-6-fluoro-N-methyl-pyridine-2-carboxamide] | 8.30 | < 4.00 |
| CCc1nc2ccc(CN3CCN(c4ccc(C(=O)NC)nc4)CC3)c(C)c2[nH]c1=O [Example 44, 5-[4-[(2-ethyl-5-methyl-3-oxo-4H-quinoxalin-6-yl)methyl]piperazin-1-yl]-N-methyl-pyridine-2-carboxamide] | 6.89 | < 4.00 |
| CCNC(=O)c1ccc(N2CCN(Cc3ccc4nc(C)c(=O)[nH]c4c3F)CC2)c(C)n1 [Example 46, N-ethyl-5-[4-[(5-fluoro-2-methyl-3-oxo-4H-quinoxalin-6-yl)methyl]piperazin-1-yl]-6-methyl-pyridine-2-carboxamide] | 8.00 | < 4.00 |
| CNC(=O)c1ccc(N2CCN(Cc3ccc4nc(C(F)(F)F)c(=O)[nH]c4c3F)CC2)cn1 [Example 50, 5-[4-[[5-fluoro-3-oxo-2-(trifluoromethyl)-4H-quinoxalin-6-yl]methyl]piperazin-1-yl]-N-methyl-pyridine-2-carboxamide] | 7.22 | 4.46 |
| CNC(=O)c1ccc(N2CCN(Cc3ccc4nc(C(C)C)c(=O)[nH]c4c3F)CC2)c(F)n1 [Example 51, 6-fluoro-5-[4-[(5-fluoro-2-isopropyl-3-oxo-4H-quinoxalin-6-yl)methyl]piperazin-1-yl]-N-methyl-pyridine-2-carboxamide] | 8.22 | 5.92 |
| CNC(=O)c1ccc(N2CCN(Cc3ccc4nc(C(C)C)c(=O)[nH]c4c3F)CC2)c(C)n1 [Example 52, 5-[4-[(5-fluoro-2-isopropyl-3-oxo-4H-quinoxalin-6-yl)methyl]piperazin-1-yl]-N,6-dimethyl-pyridine-2-carboxamide] | 7.07 | 5.42 |
| CNC(=O)c1ccc(N2CCN(Cc3ccc4nc(C(C)C)c(=O)[nH]c4c3F)CC2)cn1 [Example 53, 5-[4-[(5-fluoro-2-isopropyl-3-oxo-4H-quinoxalin-6-yl)methyl]piperazin-1-yl]-N-methyl-pyridine-2-carboxamide] | 7.59 | < 4.00 |
| CNC(=O)c1ccc(N2CCN(Cc3ccc4nc(C5CC5)c(=O)[nH]c4c3F)CC2)c(F)n1 [Example 54, 5-[4-[(2-cyclopropyl-5-fluoro-3-oxo-4H-quinoxalin-6-yl)methyl]piperazin-1-yl]-6-fluoro-N-methyl-pyridine-2-carboxamide] | 6.95 | < 4.00 |
| CNC(=O)c1ccc(N2CCN(Cc3ccc4nc(C5CC5)c(=O)[nH]c4c3F)CC2)c(C)n1 [Example 55, 5-[4-[(2-cyclopropyl-5-fluoro-3-oxo-4H-quinoxalin-6-yl)methyl]piperazin-1-yl]-N,6-dimethyl-pyridine-2-carboxamide] | 8.30 | < 4.00 |
| CNC(=O)c1ccc(N2CCN(Cc3ccc4nc(C5CC5)c(=O)[nH]c4c3F)CC2)cn1 [Example 56, 5-[4-[(2-cyclopropyl-5-fluoro-3-oxo-4H-quinoxalin-6-yl)methyl]piperazin-1-yl]-N-methyl-pyridine-2-carboxamide] | 8.10 | < 4.00 |
| CNC(=O)c1ccc(N2CCN(Cc3ccc4nc(OC)c(=O)[nH]c4c3C)CC2)c(C)n1 [Example 57, 5-[4-[(2-methoxy-5-methyl-3-oxo-4H-quinoxalin-6-yl)methyl]piperazin-1-yl]-N,6-dimethyl-pyridine-2-carboxamide] | 7.96 | < 4.00 |
| CNC(=O)c1ccc(N2CCN(Cc3ccc4nc(OC)c(=O)[nH]c4c3C)CC2)c(C(F)F)n1 [Example 59, 6-(difluoromethyl)-5-[4-[(2-methoxy-5-methyl-3-oxo-4H-quinoxalin-6-yl)methyl]piperazin-1-yl]-N-methyl-pyridine-2-carboxamide] | 8.22 | 5.68 |
| CNC(=O)c1ccc(N2CCN(Cc3ccc4nc(C)c(=O)[nH]c4c3C)CC2)c(C(F)F)n1 [Example 60, 6-(difluoromethyl)-5-[4-[(2,5-dimethyl-3-oxo-4H-quinoxalin-6-yl)methyl]piperazin-1-yl]-N-methyl-pyridine-2-carboxamide] | 7.64 | < 4.00 |

From patent US20250082630A1, “METHODS OF TREATING BRAIN TUMOURS AND NEUROBLASTOMAS” (AstraZeneca AB, priority 2021, published 2025)
